# Laboratory results from ChEMBL document CHEMBL4725222, “Advances in the Development of Phosphodiesterase-4 Inhibitors” (J Med Chem, 2020).
# Assays:
# Homo sapiens [1] = test: Inhibition of early allergic response in atopic asthmatic patient assessed as reduction in weighted mean FEV1 level at 87.5 ug administered once daily via inhalation for 7 days followed by allergen challenge relative to placebo; type: functional; details: dose 87.5 µg; time 7 day
# Homo sapiens [2] = test: Inhibition of late allergic response in atopic asthmatic patient assessed as reduction in weighted mean FEV1 level at 87.5 ug administered once daily via inhalation for 7 days followed by allergen challenge relative to placebo; type: functional; details: dose 87.5 µg; time 7 day
# Homo sapiens [3] = test: Inhibition of late allergic response in atopic asthmatic patient assessed as reduction in minimum FEV1 level at 87.5 ug administered once daily via inhalation for 7 days followed by allergen challenge relative to placebo; type: functional; details: dose 87.5 µg; time 7 day
# Phosphodiesterase 4 [4] = biological target: T1, Phosphodiesterase 4 (Homo sapiens, UniProt P27815+Q08499+Q07343+Q08493); test: Inhibition of human PDE4 expressed in Saccharomyces cerevisiae preincubated for 30 mins followed by cAMP substrate addition
# Homo sapiens [5] = test: Inhibition of early allergic response in atopic asthmatic patient assessed as reduction in minimum FEV1 level at 87.5 ug administered once daily via inhalation for 7 days followed by allergen challenge relative to placebo; type: functional; details: dose 87.5 µg; time 7 day
# [6] = biological target: T2, 3',5'-cyclic-AMP phosphodiesterase 4B (Homo sapiens, UniProt Q07343); test: Inhibition of PDE4B (unknown origin)
# [7] = biological target: Mitogen-activated protein kinase 14 (Homo sapiens, UniProt Q16539); test: Inhibition of P38 alpha MAPK (unknown origin)
# [8] = biological target: Mitogen-activated protein kinase 10 (Homo sapiens, UniProt P53779); test: Inhibition of JNK3 (unknown origin)
# [9] = biological target: T2, 3',5'-cyclic-AMP phosphodiesterase 4B; test: Inhibition of human brain PDE4B catalytic domain using cAMP as substrate incubated for 1 hr by luminescence method
# [10] = biological target: T3, 3',5'-cyclic-AMP phosphodiesterase 4D (Homo sapiens, UniProt Q08499); test: Inhibition of human PDE4D2 catalytic domain (86 to 413 residues) expressed in Escherichia coli BL21 cells using 3H-cGMP or 3H-cAMP as substrate by liquid scintillation counting method
# [11] = Induction of FEV1 in COPD patient at 18 ug/kg administered as single dose; type: functional, Homo sapiens; details: dose 18 µg/kg
# Phosphodiesterase 4 [12] = biological target: T1, Phosphodiesterase 4; test: Inhibition of PDE4 (unknown origin) expressed in Saccharomyces cerevisiae using [3H] cAMP as substrate incubated for 1 hr by scintillation proximity assay
# [13] = Inhibition of recombinant human His-tagged PDE7 expressed in baculovirus infected in sf9 cells incubated for 60 mins by Scintillation counting method
# Phosphodiesterase 4 [14] = biological target: T1, Phosphodiesterase 4; test: Inhibition of human U937 cell derived PDE4 using [3H]cAMP as substrate incubated for 60 mins by Scintillation proximity assay; type: protein assay
# [15] = biological target: Muscarinic acetylcholine receptor M3 (Homo sapiens, UniProt P20309); test: Displacement of [3H]N -methylscopolamine from human muscarinic M3 receptor expressed in CHO-K1 cells incubated for 90 mins by scintillation counting method; type: cell-based
# Phosphodiesterase 4 [16] = biological target: T1, Phosphodiesterase 4; test: Inhibition of PDE4 in human U937 cell lysate using cAMP as substrate by LANCE assay; type: subcellular; details: u-937
# [17] = Inhibition of human platelet derived PDE3
# Phosphodiesterase 4 [18] = biological target: T1, Phosphodiesterase 4; test: Inhibition of human neutrophil derived PDE4; type: protein assay
# [19] = Inhibition of guinea-pig platelet derived PDE3; set-up: species or system Cavia porcellus
# [20] = Inhibition of guinea-pig neutrophil derived PDE4; set-up: species or system Cavia porcellus
# Phosphodiesterase 4 [21] = biological target: T1, Phosphodiesterase 4; test: Inhibition of human PDE4 using [3H]cAMP as substrate incubated for 30 mins; type: protein assay
# [22] = biological target: 3',5'-cyclic-AMP phosphodiesterase 4A (Homo sapiens, UniProt P27815); test: Inhibition of PDE4A (unknown origin)
# [23] = biological target: T3, 3',5'-cyclic-AMP phosphodiesterase 4D; test: Inhibition of PDE4D (unknown origin)
# [24] = biological target: cGMP-inhibited 3',5'-cyclic phosphodiesterase 3A (Homo sapiens, UniProt Q14432); test: Inhibition of recombinant human PDE3A catalytic domain expressed in baculovirus infected sf9 cells using 3H-cAMP as substrate incubated for 20 mins by scintillation counting method
# [25] = biological target: T2, 3',5'-cyclic-AMP phosphodiesterase 4B; test: Inhibition of recombinant human PDE4B catalytic domain expressed in baculovirus infected sf9 cells using 3H-cAMP as substrate incubated for 20 mins by scintillation counting method
# [26] = biological target: T2, 3',5'-cyclic-AMP phosphodiesterase 4B; test: Inhibition of recombinant human PDE4B2 using cAMP as substrate preincubated for 5 mins followed by substrate addition and measured after 60 mins by luminescence method
# [27] = biological target: T2, 3',5'-cyclic-AMP phosphodiesterase 4B; test: Inhibition of recombinant human PDE4B expressed in Sf9 cells by IMAP phosphodiesterase assay
# [28] = biological target: T2, 3',5'-cyclic-AMP phosphodiesterase 4B; test: Inhibition of human PDE4B2 expressed in HEK293 cells using cAMP as substrate incubated for 45 to 60 mins by ELISA
# [29] = biological target: High affinity 3',5'-cyclic-AMP phosphodiesterase 7A (Homo sapiens, UniProt Q13946); test: Inhibition of human PDE7A expressed in HEK293 cells using cAMP as substrate incubated for 60 mins by ELISA
# Sequence of High affinity 3',5'-cyclic-AMP phosphodiesterase 7A (Q13946 whole entry): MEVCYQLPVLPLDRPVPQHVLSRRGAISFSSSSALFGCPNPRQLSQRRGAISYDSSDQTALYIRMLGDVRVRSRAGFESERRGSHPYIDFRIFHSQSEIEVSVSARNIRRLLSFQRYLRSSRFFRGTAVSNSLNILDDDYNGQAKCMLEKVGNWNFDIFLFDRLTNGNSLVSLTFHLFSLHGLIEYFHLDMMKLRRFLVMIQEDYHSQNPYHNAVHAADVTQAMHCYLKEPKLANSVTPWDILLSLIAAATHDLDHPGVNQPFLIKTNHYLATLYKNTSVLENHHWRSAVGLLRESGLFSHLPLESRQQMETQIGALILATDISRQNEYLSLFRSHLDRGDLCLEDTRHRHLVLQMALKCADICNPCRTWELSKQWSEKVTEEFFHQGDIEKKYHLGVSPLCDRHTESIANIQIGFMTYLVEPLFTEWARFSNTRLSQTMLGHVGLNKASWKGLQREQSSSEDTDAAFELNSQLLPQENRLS
# T2 sequence (Q07343 whole entry): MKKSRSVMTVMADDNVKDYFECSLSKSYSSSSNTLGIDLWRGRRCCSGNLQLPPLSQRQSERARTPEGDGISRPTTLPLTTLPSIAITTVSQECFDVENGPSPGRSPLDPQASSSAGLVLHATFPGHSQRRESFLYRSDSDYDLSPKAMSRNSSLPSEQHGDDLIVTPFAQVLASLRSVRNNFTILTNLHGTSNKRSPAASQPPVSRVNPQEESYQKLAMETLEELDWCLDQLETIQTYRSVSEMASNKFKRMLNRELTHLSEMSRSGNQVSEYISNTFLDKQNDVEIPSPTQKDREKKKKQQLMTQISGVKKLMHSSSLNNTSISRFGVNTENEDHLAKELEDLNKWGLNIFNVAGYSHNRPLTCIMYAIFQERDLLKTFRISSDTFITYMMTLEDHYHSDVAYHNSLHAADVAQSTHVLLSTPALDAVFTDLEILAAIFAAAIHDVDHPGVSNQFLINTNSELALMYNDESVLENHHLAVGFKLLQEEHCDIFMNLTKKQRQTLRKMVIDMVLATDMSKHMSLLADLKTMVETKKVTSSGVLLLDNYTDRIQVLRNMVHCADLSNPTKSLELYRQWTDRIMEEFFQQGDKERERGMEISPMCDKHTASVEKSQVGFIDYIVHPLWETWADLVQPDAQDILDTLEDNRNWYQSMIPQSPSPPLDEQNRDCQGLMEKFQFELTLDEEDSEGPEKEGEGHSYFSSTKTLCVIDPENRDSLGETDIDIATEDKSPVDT
# T3 sequence (Q08499 whole entry, the tested form may be a part): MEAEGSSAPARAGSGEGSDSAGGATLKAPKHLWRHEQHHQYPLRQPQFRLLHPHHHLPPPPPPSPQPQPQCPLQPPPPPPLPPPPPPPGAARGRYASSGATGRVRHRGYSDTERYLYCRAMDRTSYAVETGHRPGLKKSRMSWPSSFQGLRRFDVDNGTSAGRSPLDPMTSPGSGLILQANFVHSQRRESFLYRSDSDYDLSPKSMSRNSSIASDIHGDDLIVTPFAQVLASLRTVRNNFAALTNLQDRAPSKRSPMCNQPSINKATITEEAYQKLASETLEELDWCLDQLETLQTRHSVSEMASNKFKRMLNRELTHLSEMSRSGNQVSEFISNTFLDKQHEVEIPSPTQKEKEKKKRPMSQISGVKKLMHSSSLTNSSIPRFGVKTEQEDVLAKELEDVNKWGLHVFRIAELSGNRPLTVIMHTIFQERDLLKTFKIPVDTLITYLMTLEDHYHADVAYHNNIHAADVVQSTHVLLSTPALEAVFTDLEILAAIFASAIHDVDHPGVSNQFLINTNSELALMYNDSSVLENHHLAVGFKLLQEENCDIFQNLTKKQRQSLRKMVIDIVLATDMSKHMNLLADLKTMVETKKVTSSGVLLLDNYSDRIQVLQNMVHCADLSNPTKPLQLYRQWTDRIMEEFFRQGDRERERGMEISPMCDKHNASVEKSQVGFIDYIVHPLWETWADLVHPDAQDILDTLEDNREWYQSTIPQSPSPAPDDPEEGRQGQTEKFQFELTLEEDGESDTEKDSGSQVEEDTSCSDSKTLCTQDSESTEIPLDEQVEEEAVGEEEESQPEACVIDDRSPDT
# Sequence of Mitogen-activated protein kinase 10 (P53779 whole entry, the tested form may be a part): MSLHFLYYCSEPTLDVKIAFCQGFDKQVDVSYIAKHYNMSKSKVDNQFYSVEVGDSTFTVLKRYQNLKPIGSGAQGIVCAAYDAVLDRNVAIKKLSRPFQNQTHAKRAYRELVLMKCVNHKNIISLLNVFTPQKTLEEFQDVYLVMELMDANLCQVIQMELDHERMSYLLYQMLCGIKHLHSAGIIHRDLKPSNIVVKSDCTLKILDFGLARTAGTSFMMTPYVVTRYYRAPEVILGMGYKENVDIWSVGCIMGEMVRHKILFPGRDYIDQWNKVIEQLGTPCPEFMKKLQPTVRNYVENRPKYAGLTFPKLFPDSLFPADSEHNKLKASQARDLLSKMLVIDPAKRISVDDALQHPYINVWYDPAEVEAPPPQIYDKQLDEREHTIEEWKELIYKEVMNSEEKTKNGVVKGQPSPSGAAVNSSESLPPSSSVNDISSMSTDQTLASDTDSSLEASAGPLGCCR
# Sequence of Muscarinic acetylcholine receptor M3 (P20309 whole entry): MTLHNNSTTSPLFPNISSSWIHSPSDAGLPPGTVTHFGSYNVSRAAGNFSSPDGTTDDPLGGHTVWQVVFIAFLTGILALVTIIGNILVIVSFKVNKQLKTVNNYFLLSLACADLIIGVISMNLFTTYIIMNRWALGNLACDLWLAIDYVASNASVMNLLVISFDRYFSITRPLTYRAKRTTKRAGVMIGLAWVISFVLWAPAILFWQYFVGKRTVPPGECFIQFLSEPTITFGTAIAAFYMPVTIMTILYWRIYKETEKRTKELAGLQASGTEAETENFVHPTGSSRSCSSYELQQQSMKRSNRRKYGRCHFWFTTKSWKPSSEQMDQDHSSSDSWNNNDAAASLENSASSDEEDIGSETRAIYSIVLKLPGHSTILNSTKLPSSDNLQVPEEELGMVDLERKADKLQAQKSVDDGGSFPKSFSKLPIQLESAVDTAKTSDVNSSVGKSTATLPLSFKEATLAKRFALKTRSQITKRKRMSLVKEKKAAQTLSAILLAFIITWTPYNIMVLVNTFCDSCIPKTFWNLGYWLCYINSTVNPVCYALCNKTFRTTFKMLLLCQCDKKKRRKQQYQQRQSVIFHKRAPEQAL
# Sequence of Mitogen-activated protein kinase 14 (Q16539 whole entry): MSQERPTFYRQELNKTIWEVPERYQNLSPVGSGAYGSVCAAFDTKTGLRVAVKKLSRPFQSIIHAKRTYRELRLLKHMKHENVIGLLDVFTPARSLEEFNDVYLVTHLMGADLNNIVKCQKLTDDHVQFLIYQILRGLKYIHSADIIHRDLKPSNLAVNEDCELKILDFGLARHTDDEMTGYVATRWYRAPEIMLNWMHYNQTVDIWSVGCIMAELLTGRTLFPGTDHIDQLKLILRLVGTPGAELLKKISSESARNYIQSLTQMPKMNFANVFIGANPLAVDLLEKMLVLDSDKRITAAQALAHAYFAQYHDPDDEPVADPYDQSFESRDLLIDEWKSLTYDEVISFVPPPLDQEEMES
# Sequence of 3',5'-cyclic-AMP phosphodiesterase 4A (P27815 whole entry): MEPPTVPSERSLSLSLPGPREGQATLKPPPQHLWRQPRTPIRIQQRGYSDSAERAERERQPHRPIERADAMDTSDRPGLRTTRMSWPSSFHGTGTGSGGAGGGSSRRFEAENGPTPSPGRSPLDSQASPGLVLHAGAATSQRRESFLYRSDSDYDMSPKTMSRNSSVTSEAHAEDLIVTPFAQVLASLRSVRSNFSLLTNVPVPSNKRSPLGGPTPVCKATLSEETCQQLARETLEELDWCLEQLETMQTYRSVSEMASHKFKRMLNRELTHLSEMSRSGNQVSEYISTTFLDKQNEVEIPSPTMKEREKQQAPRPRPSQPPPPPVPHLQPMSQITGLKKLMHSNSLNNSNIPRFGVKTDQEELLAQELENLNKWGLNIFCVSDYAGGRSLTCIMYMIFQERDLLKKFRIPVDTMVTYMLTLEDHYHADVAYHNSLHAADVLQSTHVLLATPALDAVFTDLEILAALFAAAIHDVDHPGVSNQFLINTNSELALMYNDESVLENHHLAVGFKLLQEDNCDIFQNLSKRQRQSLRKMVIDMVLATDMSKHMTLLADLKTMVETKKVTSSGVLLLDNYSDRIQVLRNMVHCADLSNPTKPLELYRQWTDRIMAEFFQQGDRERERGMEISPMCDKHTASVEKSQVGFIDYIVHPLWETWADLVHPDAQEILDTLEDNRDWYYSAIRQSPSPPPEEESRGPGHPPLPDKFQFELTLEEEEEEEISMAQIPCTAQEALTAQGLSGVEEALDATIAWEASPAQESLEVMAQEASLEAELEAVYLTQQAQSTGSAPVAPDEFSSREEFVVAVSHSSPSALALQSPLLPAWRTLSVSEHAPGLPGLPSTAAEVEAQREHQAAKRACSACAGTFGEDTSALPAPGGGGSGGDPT
smiles,measurement,setting,value
COc1cccc(Nc2c(C(N)=O)cnc3c(C)cc(S(=O)(=O)c4cccc(C(=O)N(C)C)c4)cc23)c1 [GSK-256066],inhibition (INH),Homo sapiens [1],57.2%
same,inhibition (INH),Homo sapiens [2],34.3%
same,inhibition (INH),Homo sapiens [3],26.2%
same,IC50,Phosphodiesterase 4 [4],0.0032 nM
same,inhibition (INH),Homo sapiens [5],40.9%
CC(=O)Nc1ccc(-c2c(-c3ccc(F)cc3)nc([S+](C)[O-])n2C)cn1 (stereo not given),IC50,[6],200 nM
same,IC50,[7],500 nM
same,IC50,[8],700 nM
CC(C)Nc1nccc(-c2c(C3CC3)nn3ccccc23)n1,IC50,[9],1200 nM
COc1ccc([C@@]2(c3cccc(OC)c3)c3cc(O)ccc3-c3ccc(C=O)c(C#Cc4ccc(O)cc4)c32)cc1,IC50,[10],11 nM
COc1cc2c(cc1OC)-c1c/c(=N\c3c(C)cc(C)cc3C)n(CCNC(N)=O)c(=O)n1CC2 [ENSIFENTRINE],Activity,[11],>15%
CCNC(=O)c1cc(C(=O)NCCCN(C)C)cc(-c2cc(NC(=O)Nc3c(Cl)cncc3Cl)c(=O)n(CC)n2)c1,IC50,Phosphodiesterase 4 [12],0.05 nM
CCOc1ccc(-c2c(C(C)(C)O)oc(=O)c3ccccc23)cc1OC1CCCC1,IC50,[13],1400 nM
same,IC50,Phosphodiesterase 4 [14],2900 nM
O=C(O[C@@H](Cc1c(Cl)c[n+]([O-])cc1Cl)c1ccc(OC(F)F)c(OCC2CC2)c1)C1CN(C(=O)c2ccc(COc3cccc(CN(C(=O)O[C@H]4CN5CCC4CC5)c4ccccc4)c3)cc2)C1,IC50,[15],100 nM
same,IC50,Phosphodiesterase 4 [16],100 nM
CCOc1cc2c(cc1OC)C(c1ccc(C(=O)N(C(C)C)C(C)C)cc1)=N[C@@H]1CCN(C)C[C@H]21 [PUMAFENTRINE],IC50,[17],28 nM
same,IC50,Phosphodiesterase 4 [18],7 nM
COc1cc2c(cc1OC)[C@@H]1CN(C)CC[C@@H]1N=C2c1ccc(NC(C)=O)cc1 [BENAFENTRINE],IC50,[19],1740 nM
same,IC50,[20],1760 nM
COc1ccc(C2=CNC(=O)N(Cc3nc4cccc(C#N)c4o3)C2)cc1OC1CCCC1,IC50,Phosphodiesterase 4 [21],12 nM
Cc1ccc(O)c(C(=O)N[C@H]2CC[C@@H](NC(=O)c3cc(F)cnc3Oc3ccc(F)c(F)c3)CC2)c1 [UK-500001],IC50,[22],0.38 nM
same,IC50,[6],0.38 nM
same,IC50,[23],0.38 nM
COC1=CC=C(C2=NN(CCCCCOc3ccc(C4=NNC(=O)CC4C)cc3)C(=O)CC2C)C2CC(C(F)(F)F)=NN12 (stereo not given),IC50,[24],360 nM
same,IC50,[25],42 nM
COc1cccc(Nc2c(C(N)=O)ccc3c(C)cc(S(=O)(=O)c4cccc(C(=O)Nc5ccc(C#CCCCNC[C@@H](O)c6ccc(O)c7[nH]c(=O)ccc67)cc5)c4)cc23)c1,IC50,[26],5 nM
COc1ccc(C2=NN(CCCCCc3ccccc3)C(=O)CC2)cc1OC,IC50,[27],0.9 nM
CCc1nc2c(cnn2CC)c(NC2CCCCC2)c1C1=NOC2(C1)CC(C1N=NN=N1)C2 (stereo not given),IC50,[28],5 nM
same,IC50,[29],55 nM
